Measurements published in the METLIN SMRT retention time set (Domingo-Almenara et al. 2019).

Assay: gradient 5% acetonitrile 3 min, to 50% in 2 min, to 85% in 15 min, held 3 min, 100 µL/min
Conditions: column: Zorbax Extend-C18 2.1 x 50 mm; eluents: water / acetonitrile, 0.1% formic acid
Outline: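 Data were gathered over 3 months by HPLC coupled to a quadrupole time-of-flight mass spectrometer, operated in positive and negative ionization mode. Mixtures of ~100 pure standards ran on a Zorbax Extend-C18 column (2.1 × 50 mm, 1.8 μm) at 100 μL/min, with water and acetonitrile each containing 0.1% formic acid and dead and dwell volumes of 40 μL and 900 μL. Retention time was read from adduct peaks picked by computer and checked manually.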

RP-LC retention time	Structure (SMILES)
765 s	CN(C)c1nn(CC(=O)NCc2ccc3c(c2)OCO3)c(=O)c2ccccc12
669 s	COc1cc(NC(=O)N2CCN(Cc3nc4ccc(C)cc4o3)CC2)cc(OC)c1OC
568 s	O=C(NCCc1c[nH]c2ccccc12)C1CCCN(c2ccc(-n3ccnc3)nn2)C1 (stereo not given)
661 s	Cc1occc1C(=O)N1CC(c2nc(CCN(C)C(=O)C3CC3)no2)C1
538 s	Cc1cnc(C2CN(Cc3ccccn3)C2)n1CC1CC1
1060 s	CC(C)n1c(=O)sc2cc(S(=O)(=O)N3CCC(C(=O)Nc4cccc(Cl)c4)CC3)ccc21
1030 s	CCOc1ccc(Oc2cc3c(cc2NC(=O)COc2ccc(C)cc2)n(C)c(=O)c(=O)n3C)cc1
1150 s	Cc1ccc(Cn2c(=O)c3sccc3n(Cc3nc(-c4ccccc4)no3)c2=O)cc1
836 s	Cc1nc(-c2nnn(Cc3ccccc3)c2C)no1
613 s	O=C(c1ccc(-n2c(-c3ccccc3)nc3cccnc32)cc1)N1CCN(c2ccccn2)CC1
757 s	O=C(Nc1nnc(-c2ccno2)o1)C1CCCN(S(=O)(=O)c2ccc(Cl)s2)C1 (stereo not given)
886 s	CC1(C)C(=O)N(CC(=O)Nc2cccc(F)c2)c2ccccc21
665 s	CN1CCN(CC2CCC3(CCN(S(=O)(=O)c4ccc(C(C)(C)C)cc4)CC3)O2)CC1 (stereo not given)
563 s	CN(C)CCNC(=O)c1cc(S(=O)(=O)N2CCOCC2)ccc1Cl
953 s	Cc1ccc(N2CCC(NC(=O)c3ccc(C(F)(F)F)cc3)C2=O)cc1 (stereo not given)
1000 s	COC(=O)c1c(-c2ccc(Cl)cc2)noc1N1CCN(c2ccccn2)CC1
1070 s	Cc1ccc(C)c(Cn2nc3c(S(=O)(=O)N4CCc5ccccc5C4)cccn3c2=O)c1
1150 s	O=c1c2ccccc2n(Cc2nc(-c3cccc(Br)c3)no2)c(=O)n1CC1CCCO1 (stereo not given)
559 s	COc1cc(C2CC(=O)c3cnc(N4CCN(CCO)CC4)nc3C2)cc(OC)c1OC (stereo not given)
903 s	Cc1cc(C)cc(NC(=O)Cn2cc(-c3nnc(C)o3)c3ccccc32)c1
563 s	Cn1cccc1C(CNS(=O)(=O)c1ccc2c(c1)OCCO2)N1CCOCC1 (stereo not given)

RP-LC retention time	Structure (SMILES)
805 s	CCC(C)N(CC(=O)N(Cc1ccco1)CC1CCCO1)C(=O)c1ccccc1OC (stereo not given)
763 s	Cc1cc(C)cc(Nc2c(-c3cccc(O)c3)nc3cnccn23)c1
646 s	Cc1ccc(OCCC2CCNC2)cc1 (stereo not given)
598 s	COc1ccc(OC)c(S(=O)(=O)N2CCc3nn(CC4CC4)c(=O)n3CC2)c1
997 s	Cc1ccc(C2CC(=O)N(c3ccc(F)c(F)c3)C(=O)C2)cc1
1000 s	CCCNc1cc(C)nc2nc(-c3ccc(C(C)(C)C)cc3)nn12
1190 s	CCCSCCCNc1nc(-c2nnc(-c3cccc(C)c3)o2)nc2ccccc12
852 s	CCOC(=O)C1CCc2sc(NC(=O)c3n[nH]c4ccccc34)nc21 (stereo not given)
637 s	Cc1cc(C(=O)N2CCOCC2)nn1CC(=O)NCCc1c[nH]c2ccccc12
1160 s	Cc1sc(NC(=O)Cc2csc(-c3ccccc3)n2)nc1-c1ccccc1
655 s	CC1CCN(C2=NCCN2C(=O)c2ccccc2Cl)CC1
821 s	COc1ccc(N2CCN(C(=O)C3CCCN(C(=O)c4cc5sccc5n4C)C3)CC2)cc1 (stereo not given)
503 s	CC(C)C(=O)NC(C)c1nc2ccccc2n1CC(N)=O (stereo not given)
555 s	O=C(NCCCn1nc(-c2ccncc2)ccc1=O)c1ccc2c(c1)OCO2
1050 s	O=C(Nc1ccc(Cl)c(C(F)(F)F)c1)C(=O)c1ccc[nH]1
735 s	CN1C(=O)c2cccnc2Sc2cc(NC(=O)C(C)(C)C)ccc21
614 s	N#CCCN1CCN(c2cc(C(=O)O)c3cc(NC(=O)c4cccc(Cl)c4)ccc3n2)CC1
592 s	COCCc1noc([C@@H]2CN(Cc3ccc4[nH]ccc4c3)C[C@H]2CO)n1
718 s	CCCC(=O)NCCn1c(=O)n(Cc2ccccc2)c2cccnc21
606 s	CCCOc1cc(N2CCN(S(=O)(=O)CCC)CC2)nc(C)n1
695 s	O=S(=O)(Cc1c(F)cccc1Cl)N1CCC(CN2CCCCCC2)CC1

The next lines start with the molecule.

Structure (SMILES)	RP-LC retention time
COc1ccc(OC)c(CNC(=O)[C@@H]2[C@H](c3cc(OC)c(OC)c(OC)c3)c3cc4c(cc3[C@H](O)[C@H]2CO)OCO4)c1	721 s
CCOC(=O)c1c(C)c(C(=O)C(C)N(Cc2ccc(F)cc2)C(=O)CC)c(C)n1CC (stereo not given)	1080 s
COc1ccc(-c2n[nH]c3c2C(c2ccc(O)cc2)N(C)C3=O)cc1 (stereo not given)	667 s
Cc1nc(CC(=O)N2CCC(C(N)=O)CC2)cs1	646 s
Cc1sc2ccn(CC(C)C)c(=O)c2c1C(=O)N1CCN(C2CCCCC2)CC1	642 s
O=C(NCc1ccccc1C(F)(F)F)C1CCCN(c2ncnc3c2oc2ccccc23)C1 (stereo not given)	861 s
c1csc(-c2nc(-c3ccnc(N4CCCC4)c3)no2)c1	665 s
COc1cc(OC2CCN(C)CC2)ccc1Nc1ncc2c(n1)n(C1CCCC1)c(=O)n2C	654 s
CCOC(=O)c1c(N)n(-c2ccccc2)c2nc3ccccc3nc12	683 s
CCOc1ccc(NC(=O)Cn2c(=O)nc(N3CCC(C)CC3)c3ccccc32)cc1	845 s
CCOCCCNC(=O)C1c2cc(OC)c(OC)cc2C(=O)N2CCc3ccccc3C12 (stereo not given)	718 s
COc1ccc(N2CCN(CCNC(=O)c3cccs3)CC2)cc1	557 s
C=CCNC(=O)c1cnn(-c2cc(-c3nc(C4CC4)no3)ccn2)c1C	895 s
CCc1ccc(-c2cc3c(=O)n(Cc4noc(CN5CCCCC5C)n4)ccn3n2)cc1 (stereo not given)	761 s
O=C(C1CCCN(c2nccnc2Sc2ccccc2)C1)N1CCCCCC1 (stereo not given)	1120 s
COc1cc(-c2nc(C3CC(=O)N(c4ccc(F)cc4)C3)no2)cc(OC)c1OC (stereo not given)	901 s
CN1CCN(c2ccc(CNC(=O)C3CCCN(c4nccnc4Oc4ccccc4)C3)cc2)CC1 (stereo not given)	664 s
Cc1oc2cc(OCC#N)ccc2c(=O)c1-c1ccc(Cl)cc1	926 s
COc1ccc(NC(=O)N2CCN(c3cc(C)nc(N4CCCC4)n3)CC2)c(C)c1	692 s
CC(C)CC(=O)NCC1Cn2cccc2C(=O)N1C (stereo not given)	620 s
COc1cc(NC(=O)N2CCC(n3cnc4cccnc43)CC2)cc(OC)c1	638 s
O=C(NC1CCCCCCC1)C1CCN(C(=O)c2ccc(F)cc2)CC1	858 s
CN(CC1CCOC1)C(=O)c1cc(F)cc(F)c1 (stereo not given)	690 s
Cn1cc(C(=O)Nc2ccc(Cl)cc2)c2cccnc21	835 s

Structure (SMILES)	RP-LC retention time
O=C(c1noc2c1CCCCC2)N1CCN(Cc2ccc3c(c2)OCO3)CC1	665 s
CCOc1ccc(-c2nnc(SCC(=O)Nc3nnc(C)s3)o2)cc1	776 s
CN(C)c1ccc(NC(=O)c2c(O)c3ccccc3n(-c3ccccc3)c2=O)cc1	1180 s
CCOC(=O)c1cnc2c(cnn2CC)c1NN=C(C)C	1010 s
O=C(NCCOc1cc(N2CCCC2)ncn1)NCc1ccccc1	575 s
Cc1nc2c(C)cccn2c(=O)c1NC(=O)COc1ccc(Cl)cc1Cl	838 s
Cc1ccc(NC(=O)CCC(=O)N2CCSc3nc(C)cc(C)c32)cc1	717 s
O=C(CSc1nc2ncccc2n2cccc12)N1CCN(c2ccccn2)CC1	592 s
CCOc1ccc(-c2[nH]ncc2CNS(=O)(=O)c2ccccc2CC)cc1	884 s
Cc1cc(C)n(-c2ccc(=O)n(C(C)C(=O)NCCc3csc(-c4ccccc4)n3)n2)n1 (stereo not given)	780 s
COC(=O)c1ncoc1-c1ccccc1C(=O)NC1CCCC1	699 s
O=C(CC1CCN(C(=O)Nc2cccc(C(F)(F)F)c2)CC1)N1CCCCC1	878 s
CCOC(=O)c1c(S(=O)(=O)N2CCC(C(=O)Nc3ccc(CC)cc3)CC2)c(C)n(CC)c1C	984 s
O=C(Cc1ccccc1)N1CCCC1c1nc(-c2ccccc2Cl)no1 (stereo not given)	994 s
O=C(CN1CCN(Cc2ccccc2Cl)CC1)Nc1nc(-c2ccccc2)cs1	747 s
Cc1cc(N2CCN(C)CC2)nc2ccc(NC(=O)NC3CCCC3)cc12	568 s
CC(C)CCNC(=O)NCCn1c(-c2ccc(F)cc2)nc2ccccc21	650 s
O=C(c1cc(F)cc(F)c1)N1CCN(c2cc(-c3ccc(F)cc3)[nH]n2)CC1	837 s
CCNC(=O)NC1CCN(c2nc3cccnc3n(Cc3ccccc3)c2=O)CC1	877 s
CCN(CC)CCNC(=O)c1nnc(-c2ccc(S(=O)(=O)N3CCC(C)CC3)cc2)o1	696 s
COc1cccc(CNc2cc(-n3nc(C)cc3C)ncn2)c1	896 s
O=C(c1ccc(F)cc1)N1CCCN(c2nnc3ccc(Cl)cn23)CC1	689 s
COc1cc(C(=O)NC(CC(C)C)C(=O)Nc2nc3ccccc3[nH]2)cc(OC)c1OC (stereo not given)	733 s
CCN(CC)C(=O)c1ccc2nc(-c3ccc(C)c(C)c3)cn2c1	669 s
